Experimental data reported in US11028090B2 (Dong Wha Pharm. Co., Ltd., priority 2017, dated 2021).
Like-named read-outs stand apart in the source and are kept apart here.

Key:
[1] = biological target: BRD4 (BD1+BD2) bromodomain (Homo sapiens (Human), UniProt O60885); assay: BRD4 binding inhibition (AlphaScreen, GST-BRD4 vs tetraacetylated histone H4 peptide)
Outline: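 AlphaScreen read after 30 min dark incubation at room temperature with glutathione acceptor/streptavidin donor beads (10 μg/ml each). The beads were added to compound plus 100 nM biotin-H4 (K5,8,12,16-acetyl) peptide and 100 nM GST-BRD4 BD1+BD2 in pH 7.4 HEPES/Tween/BSA/DTT buffer.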

[2] = test system: thymus cancer cells (Ty-82 cells); assay: Cytotoxicity to thymus cancer cells (Ty-82 cells), WST-1; settings: Homo sapiens, TY82, 72 h
Protocol: The following experiment was performed to evaluate the cytotoxicity of [1,2,4]triazolo[4,3-a]quinoxaline derivative according to the present invention to thymus cancer cells (Ty-82 cells).
First, thymus cancer cells (Ty-82 cells) were distributed in a 96 well plate at the density of 2.5×10^4 cells/well. 24 hours later, the plated cells were treated with the compounds of the present invention dissolved in DMSO at the different concentrations ranging from 0.01 μM to 10 μM. 72 hours later, the activities of the compounds were determined using WST-1 reagent.

[3] = test system: acute myelogenous leukemia cells (MV-4-11 cells); assay: Cytotoxicity to acute myelogenous leukemia cells (MV-4-11 cells), CCK-8; settings: Homo sapiens, MV4-11, 72 h
[4] = GST-BRD4 (BD1+BD2) / biotinylated acetyl-histone H4 (Lys5,8,12,16) peptide, read-out: IC50, BRD4 binding inhibition
[5] = GST-BRD4 (BD1+BD2) vs biotinylated acetyl-histone H4 peptide, AlphaScreen, read-out: BRD4 IC50
[6] = read-out: IC50, cytotoxicity against thymus cancer cells
[7] = read-out: Ty-82 Cytotoxicity IC50
[8] = read-out: IC50, cytotoxicity against acute myelogenous leukemia cells
[9] = read-out: MV-4-11 Cytotoxicity IC50

Structure (SMILES)	IC50 [1, 4] [nM]	IC50 [1, 5] [nM]	IC50 [2, 6] [nM]	IC50 [2, 7] [nM]	IC50 [3, 8] [nM]	IC50 [3, 9] [nM]
Cc1nnc2c(NCCCCNC(=O)C(C)(C)C)nc3cc(NC(=O)C(C)C)ccc3n12 [Example 247, N-[4-(7-isobutyramido-1-methyl-[1,2,4]triazolo[4,3-a]quinoxaline-4-ylamino)-butyl]-2,2-dimethyl-propionamide]	≤ 50	31	≤ 500	400		
Cc1nnc2c(NCCCCNC(=O)CC(C)C)nc3ccccc3n12 [Example 7, 3-methyl-N-[4-(1-methyl-[1,2,4]triazolo[4,3-a]quinoxaline-4-ylamino)-butyl]-butyramide]	≤ 50	20	≤ 500	260		
COCCOc1cc2nc(NCCCCNC(=O)c3ccccc3Cl)c3nnc(C)n3c2cc1OCCOC [Example 171, N-{4-[7,8-bis-(2-methoxy-ethoxy)-1-methyl-[1,2,4]triazolo[4,3-a]quinoxaline-4-ylamino]-butyl}-2-chloro-benzamide]	≤ 50	26		580		
COc1cccc2c1nc(NCCCCNC(=O)OCC(C)C)c1nnc(C)n12 [Example 120, N-[4-(6-methoxy-1-methyl-[1,2,4]triazolo[4,3-a]quinoxaline-4-ylamino)-butyl]-carbamic acid isobutylester]	≤ 50	34		620		
COc1ccc2nc(NCCCCNC(=O)c3ccc(C)nc3Cl)c3nnc(C)n3c2c1 [Example 129]	≤ 50	17		830		
Cc1nnc2c(NCCCCNC(=O)OC(C)(C)C)nc3cc(C(=O)NC(C)C)ccc3n12 [Example 202, [4-(7-isopropylcarbamoyl-1-methyl-[1,2,4]triazolo[4,3-a]quinoxaline-4-ylamino)-butyl]-carbamic acid-tert-butylester]	≤ 50	44		640		
Cc1nnc2c(NCCCCNC(=O)OC(C)(C)C)nc3cc(NC(=O)C(C)C)ccc3n12 [Example 246, [4-(7-isobutyramido-1-methyl-[1,2,4]triazolo[4,3-a]quinoxaline-4-ylamino)-butyl]-carbamic acid-tert-butylester]	≤ 50	23	≤ 500	490		
Cc1nnc2c(NCCCCNC(=O)c3ccccc3Cl)nc3ccccc3n12 [Example 12]		58		850		
Cc1nnc2c(NCCCCNC(=O)c3ccccc3)nc3cc(C(=O)NC(C)C)ccc3n12 [Example 205, 4-(4-benzoylamino-butylamino)-1-methyl-[1,2,4]triazolo[4,3-a]quinoxaline-7-carboxylic acid isopropylamide]		75		550		
COc1cc2nc(NCCCCNC(=O)C(C)(C)C)c3nnc(C)n3c2cc1C [Example 466]			≤ 500	340	≤ 200	83
CC(=O)Nc1ccc2c(c1)nc(NCCCCNC(=O)c1ccccc1)c1nnc(C)n12 [Example 251, N-[4-(7-acetylamino-methyl-[1,2,4]triazolo[4,3-a]quinoxaline-4-ylamino)-butyl]-benzamide]	≤ 50			680		
COc1ccc2c(c1)nc(NCCCCNC(=O)C(C)(C)C)c1nnc(C)n12 [Example 277, N-[4-(7-methoxy-1-methyl-[1,2,4]triazolo[4,3-a]quinoxaline-4-ylamino)-butyl]-2,2-dimethyl-propionamide]				930		550
COc1cc2nc(NCCCCNC(=O)c3ccc([N+](=O)[O-])cc3)c3nnc(C)n3c2cc1OC [Example 101, N-[4-(7,8-dimethoxy-1-methyl-[1,2,4]triazolo[4,3-a]quinoxaline-4-ylamino)-butyl]-4-nitro-benzamide]		51		880		
Cc1nnc2c(NCCCCC(=O)NCC(C)C)nc3ccccc3n12 [Example 660, 5-(1-methyl-[1,2,4]triazolo[4,3-a]quinoxaline-4-ylamino)-pentanoic acid isobutylamide]	≤ 50	36		840		
Cc1nnc2c(NCCCCNC(=O)C(C)(C)C)nc3ccccc3n12 [Example 3, 2,2-dimethyl-N-[4-(1-methyl-[1,2,4]triazolo[4,3-a]quinoxaline-4-ylamino)-butyl]-propionamide]	≤ 50	28		920		
CC(=O)Nc1ccc2c(c1)nc(NCCCCNC(=O)C(C)(C)C)c1nnc(C)n12 [Example 250, N-[4-(7-acetylamino-methyl-[1,2,4]triazolo[4,3-a]quinoxaline-4-ylamino)-butyl]-2,2-dimethyl-propionamide]	≤ 50		≤ 500	300		
CC(=O)Nc1ccc2c(c1)nc(NCCCCNC(=O)OC(C)(C)C)c1nnc(C)n12 [Example 249, [4-(7-acetylamino-methyl-[1,2,4]triazolo[4,3-a]quinoxaline-4-ylamino)-butyl]-carbamic acid-tert-butylester]	≤ 50		≤ 500	400		
Cc1nnc2c(NCCCCNC(=O)OC(C)(C)C)nc3cc(C(=O)NCc4ccccc4)ccc3n12 [Example 210, [4-(7-benzylcarbamoyl-1-methyl-[1,2,4]triazolo[4,3-a]quinoxaline-4-ylamino)-butyl]-carbamic acid-tert-butylester]	≤ 50	18		760		
Cc1nnc2c(NCCCCNC(=O)c3ccccc3)nc3cc(NC(=O)C(C)C)ccc3n12 [Example 248, N-[4-(7-isobutyramido-1-methyl-[1,2,4]triazolo[4,3-a]quinoxaline-4-ylamino)-butyl]-benzamide]		54		510		
Cc1nnc2c(NCCCCNC(=O)OC(C)(C)C)nc3cc(C(=O)Nc4ccccc4)ccc3n12 [Example 212, [4-(1-methyl-7-phenylcarbamoyl-[1,2,4]triazolo[4,3-a]quinoxaline-4-ylamino)-butyl]-carbamic acid-tert-butylester]	≤ 50	35		840		
COc1ccc2nc(NCCCCNC(=O)c3ccccc3)c3nnc(C)n3c2c1 [Example 127, N-[4-(8-methoxy-1-methyl-[1,2,4]triazolo[4,3-a]quinoxaline-4-ylamino)-butyl]-benzamide]	≤ 50	46		620		
COc1cc2nc(NCCCCNC(=O)OC(C)(C)C)c3nnc(C)n3c2cc1C [Example 464, [4-(7-methoxy-1,8-dimethyl-[1,2,4]triazolo[4,3-a]quinoxaline-4-ylamino)-butyl]-carbamic acid-tert-butylester]		61		790		
Cc1nnc2c(NCCCCNC(=O)OC(C)C)nc3ccccc3n12 [Example 4, [4-(1-methyl-[1,2,4]triazolo[4,3-a]quinoxaline-4-ylamino)-butyl]-carbamic acid isopropylester]	≤ 50			650		
COc1c(C)ccc2c1nc(NCCCCNC(=O)OC(C)C)c1nnc(C)n12 [Example 133, [4-(6-methoxy-1,7-dimethyl-[1,2,4]triazolo[4,3-a]quinoxaline-4-ylamino)-butyl]-carbamic acid isopropylester]	≤ 50	34		880		
COC(=O)c1ccc2c(c1)nc(NCCCCNC(=O)OC(C)(C)C)c1nnc(C)n12 [Example 197, 4-(4-tert-butoxycarbamoylamino-butylamino)-1-methyl-[1,2,4]triazolo[4,3-a]quinoxaline-7-carboxylic acid methylester]	≤ 50	28		650		
Cc1nnc2c(NCCCCNC(=O)CC(C)(C)C)nc3ccccc3n12 [Example 8, 3,3-dimethyl-N-[4-(1-methyl-[1,2,4]triazolo[4,3-a]quinoxaline-4-ylamino)-butyl]-butyramide]	≤ 50	24		860		
Cc1nnc2c(NCCCCNC(=O)CC(C)C)nc3cc(NS(C)(=O)=O)ccc3n12 [Example 257, N-[4-(7-methanesulfonylamino-1-methyl-[1,2,4]triazolo[4,3-a]quinoxaline-4-ylamino)-butyl]-3-methyl-butyramide]	≤ 10	8				327
COCCOc1ccc2c(c1)nc(NCCCCNC(=O)OC(C)C)c1nnc(C)n12 [Example 366, {4-[7-(2-methoxy-ethoxy)-1-methyl-[1,2,4]triazolo[4,3-a]quinoxaline-4-ylamino]-butyl}-carbamic acid isopropylester]	≤ 50	16			≤ 200	110
COc1cc2nc(NCCCCNC(=O)Cc3ccccc3)c3nnc(C)n3c2cc1OC [Example 86, N-[4-(7,8-dimethoxy-1-methyl-[1,2,4]triazolo[4,3-a]quinoxaline-4-ylamino)-butyl]-2-phenyl-acetamide]	≤ 50	17			≤ 200	60
COc1cc2nc(NCCCCNC(=O)C3CC3)c3nnc(C)n3c2cc1OC [Example 76, cyclopropane-carboxylic acid-[4-(7,8-dimethoxy-1-methyl-[1,2,4]triazolo[4,3-a]quinoxaline-4-ylamino)-butyl]-amide]	≤ 50	38				870
